Like-named read-outs stand apart in the source and are kept apart here.
What was measured:
[1] = molecular target: Pim-2 (Homo sapiens (Human), UniProt Q9P1W9); test: Pim-Mn enzyme assay (HTRF, 384-well), Pim-2; format: biochemical; details: Pim-2 enzyme 0.5 pM, ATP 1.5 μM, BAD (S112) 0.5 μM, HTRF, 22-point curve; read-out: Pim-2-Mn IC50 IP
[2] = molecular target: Pim-1 (Homo sapiens (Human), UniProt P11309); test: Pim-Mn enzyme assay (HTRF, 384-well), Pim-1; format: biochemical; details: read-out: Pim-1-Mn IC50 IP
[3] = system: KMS-12-BM cell lines; test: KMS12 #2 flow cytometry assay (phospho-BAD Ser112); format: cell-based; details: KMS-12-BM cells, pBAD Ser112 by flow cytometry, 110 min with compound, read-out: KMS-12-Flow IC50 IP
[4] = Pim-1 enzyme 5 pM, ATP 1.5 μM, BAD (S112) 0.5 μM, HTRF, 22-point curve

Chain of Pim-2 (Q9P1W9 whole entry): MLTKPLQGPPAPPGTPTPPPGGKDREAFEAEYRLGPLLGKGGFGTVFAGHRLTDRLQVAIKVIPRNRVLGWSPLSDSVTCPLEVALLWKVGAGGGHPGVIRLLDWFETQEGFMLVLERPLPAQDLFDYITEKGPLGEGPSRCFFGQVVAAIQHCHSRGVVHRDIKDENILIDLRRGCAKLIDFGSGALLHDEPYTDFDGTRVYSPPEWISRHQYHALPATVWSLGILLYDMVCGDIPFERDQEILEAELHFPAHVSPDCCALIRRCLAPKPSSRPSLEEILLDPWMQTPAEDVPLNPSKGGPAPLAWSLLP
Chain of Pim-1 (P11309 whole entry): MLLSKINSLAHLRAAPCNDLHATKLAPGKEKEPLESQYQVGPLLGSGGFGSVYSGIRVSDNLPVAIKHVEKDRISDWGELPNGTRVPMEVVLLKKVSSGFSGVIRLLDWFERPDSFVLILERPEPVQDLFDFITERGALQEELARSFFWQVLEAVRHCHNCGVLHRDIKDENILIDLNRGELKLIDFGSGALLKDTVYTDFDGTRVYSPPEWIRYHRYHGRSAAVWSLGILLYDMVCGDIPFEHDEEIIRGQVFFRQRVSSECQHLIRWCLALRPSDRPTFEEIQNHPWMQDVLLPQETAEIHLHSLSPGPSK

Row | SMILES | IC50 [1] | IC50 [2, 4] | IC50 ([3]; Homo sapiens, 110 min) | IC50 [3] | IC50 [2]
1 | Cc1nc2cccc(-c3cc4c([nH]3)CCNC4=O)c2nc1NCC(F)(F)F [Example 336, 2-(2-methyl-3-((2,2,2-trifluoroethyl)amino)-5-quinoxalinyl)-1,5,6,7-tetrahydro-4H-pyrrolo[3,2-c]pyridin-4-one] | 1.32 nM | 2.82 nM | 145 nM | – | –
2 | Cc1nc2cccc(-c3cc4c([nH]3)CCNC4=O)c2nc1NC(C)c1ccncn1 (stereo not drawn) [Example 323, 2-(2-methyl-3-((1-(pyrimidin-4-yl)ethyl)amino)quinoxalin-5-yl)-6,7-dihydro-1H-pyrrolo[3,2-c]pyridin-4(5H)-one] | 62.7 nM | 83.8 nM | > 20000 nM | – | –
3 | Cc1nc2cccc(-c3cc4c([nH]3)C(COCc3ccccc3)NC4=O)c2nc1NC1(C)CC1 (stereo not drawn) [Example 355, 6-((benzyloxy)methyl)-2-(2-methyl-3-((1-methylcyclopropyl)amino)quinoxalin-5-yl)-5,6-dihydropyrrolo[3,4-b]pyrrol-4 (1H)-one] | 1.86 nM | – | 2430 nM | – | 1.79 nM
4 | Cc1nc2cccc(-c3cc4c([nH]3)CCNC4=O)c2nc1-c1ccccc1Cl [Example 427, 2-(3-(2-Chlorophenyl)-2-methylquinoxalin-5-yl)-6,7-dihydro-1H-pyrrolo[3,2-c]pyridin-4(5H)-one] | 82 nM | 23.3 nM | > 40000 nM | – | –
5 | Cc1nc2cccc(-c3cc4c([nH]3)[C@H](CO)NC4=O)c2nc1NC1CC1 [Example 367, (R)-2-(3-(cyclopropylamino)-2-methylquinoxalin-5-yl)-6-(hydroxymethyl)-5,6-dihydropyrrolo[3,4-b]pyrrol-4(1H)-one] | 3.68 nM | 3.81 nM | 429 nM | – | –
6 | CNc1nc2cccc(-c3cc4c([nH]3)CCNC4=O)c2nc1NC(C)(C)C [Example 344, 2-(3-(tert-butylamino)-2-(methylamino)-5-quinoxalinyl)-1,5,6,7-tetrahydro-4H-pyrrolo[3,2-c]pyridin-4-one] | 5.61 nM | 1.19 nM | 202 nM | – | –
7 | Cc1nc2ccc(F)c(-c3cc4c([nH]3)CCNC4=O)c2nc1NC(C)C [Example 373, 2-(6-fluoro-3-(isopropylamino)-2-methylquinoxalin-5-yl)-6,7-dihydro-1H-pyrrolo[3,2-c]pyridin-4(5H)-one 2,2,2-trifluoroacetate] | 1.63 nM | 1.8 nM | 94.3 nM | – | –
8 | Cc1nc2cccc(-c3cc4n(c3)C(=O)NC4=O)c2nc1NC(C)(C)C [Example 422, 6-(3-(tert-Butylamino)-2-methyl-5-quinoxalinyl)-1H-pyrrolo[1,2-c]imidazole-1,3(2H)-dione] | 37.1 nM | 12.3 nM | 2610 nM | – | –
9 | Cc1nc2cccc(-c3cc4c([nH]3)C3(CCOCC3)NC4=O)c2nc1NC(C)(C)C [Example 409, 2′-(3-(tert-butylamino)-2-methyl-5-quinoxalinyl)-2,3,5,6-tetrahydro-1′H-spiro[pyran-4,6′-pyrrolo[3,4-b]pyrrol]-4′(5′H)-one] | 62.6 nM | 31.7 nM | 5760 nM | – | –
10 | Cc1nc2ccc(F)c(-c3cc4c([nH]3)C3(CC3)NC4=O)c2nc1NC(C)(C)C [Example 295, 2′-(3-(tert-butylamino)-6-fluoro-2-methylquinoxalin-5-yl)-1′H-spiro[cyclopropane-1,6′-pyrrolo[3,4-b]pyrrol]-4′(5′H)-one] | 0.52 nM | – | 41 nM | – | 0.562 nM
11 | Cc1nc2cccc(-c3cc4c([nH]3)CCN(CO)C4=O)c2nc1NC(C)(C)C [Example 299, 2-(3-(tert-butylamino)-2-methylquinoxalin-5-yl)-5-(hydroxymethyl)-6,7-dihydro-1H-pyrrolo[3,2-c]pyridin-4(5H)-one] | 9 nM | 7 nM | > 40000 nM | – | –
12 | Cc1nc2cccc(-c3cc4c([nH]3)CCNC4=O)c2nc1NC(C)c1ccccn1 (stereo not drawn) [Example 321, 2-(2-methyl-3-((1-(pyridin-2-yl)ethyl)amino)quinoxalin-5-yl)-6,7-dihydro-1H-pyrrolo[3,2-c]pyridin-4(5H)-one] | 156 nM | 98.6 nM | > 40000 nM | – | –
13 | Cc1nc2cccc(-c3cc4c([nH]3)CCNC4=O)c2nc1-c1nccn1C [Example 432, 2-(2-Methyl-3-(1-methyl-1H-imidazol-2-yl)quinoxalin-5-yl)-6,7-dihydro-1H-pyrrolo[3,2-c]pyridin-4(5H)-one] | 244 nM | 413 nM | > 40000 nM | – | –

Further compounds by falling IC50 [1], results first:

Row | IC50 [1] | IC50 [2, 4] | IC50 ([3]; Homo sapiens, 110 min) | IC50 [3] | SMILES | IC50 [2]
14 | 139 nM | 133 nM | 2630 nM | – | Cc1nc2cccc(-c3cc4c([nH]3)CCNC4=O)c2nc1NC(=N)N [Example 447, 1-(3-methyl-8-(4-oxo-4,5,6,7-tetrahydro-1H-pyrrolo[3,2-c]pyridin-2-yl)quinoxalin-2-yl)guanidine] | –
15 | 17.2 nM | 18.1 nM | – | 1310 nM | Cc1nc2cccc(-c3cc4c([nH]3)CCNC4=O)c2nc1N[C@H]1C[C@@H](NC(=O)OC(C)(C)C)C1 [Example 434, tert-butyl ((1s,3s)-3-((3-methyl-8-(4-oxo-4,5,6,7-tetrahydro-1H-pyrrolo[3,2-c]pyridin-2-yl)quinoxalin-2-yl)amino)cyclobutyl)carbamate] | –
16 | 2.78 nM | 2.33 nM | 1770 nM | – | CC(C)(C)Nc1nc2c(-c3cc4c([nH]3)CCNC4=O)cccc2nc1F [Example 343, 2-(3-(tert-butylamino)-2-fluoro-5-quinoxalinyl)-1,5,6,7-tetrahydro-4H-pyrrolo[3,2-c]pyridin-4-one] | –
17 | 2.6 nM | 1.5 nM | 659 nM | – | CC(C)(C)Nc1nc2c(-c3cc4c([nH]3)CCNC4=O)cccc2c(=O)n1-c1cccnc1 [Example 404, 2-(tert-butylamino)-8-(4-oxo-4,5,6,7-tetrahydro-1H-pyrrolo[3,2-c]pyridin-2-yl)-3-(3-pyridinyl)-4(3H)-quinazolinone] | –
18 | 1.27 nM | 1.05 nM | 177 nM | – | CC(C)(C)Nc1nc2c(-c3cc4c([nH]3)CCNC4=O)cccc2nc1/C=N/O [Example 308, (E)-3-(tert-butylamino)-5-(4-oxo-4,5,6,7-tetrahydro-1H-pyrrolo[3,2-c]pyridin-2-yl)quinoxaline-2-carbaldehyde oxime] | –
19 | 0.902 nM | 0.534 nM | 51.8 nM | – | Cc1nc2ccc(F)c(-c3cc4c([nH]3)[C@H](C)NC4=O)c2nc1NC1CC1 [Example 285, (S)-2-(3-(cyclopropylamino)-6-fluoro-2-methylquinoxalin-5-yl)-6-methyl-5,6-dihydropyrrolo[3,4-b]pyrrol-4(1H)-one] | –
20 | 0.501 nM | 0.508 nM | 36.2 nM | – | Cc1nc2ccc(F)c(-c3cc4c([nH]3)CNC4=O)c2nc1NC(C)(C)C [Example 296, 2-(3-(tert-butylamino)-6-fluoro-2-methyl-5-quinoxalinyl)-5,6-dihydropyrrolo[3,4-b]pyrrol-4(1H)-one] | –
21 | 0.193 nM | 0.199 nM | 76 nM | – | COCCn1c(NC(C)(C)C)nc2c(-c3cc4c([nH]3)[C@@H](C)NC4=O)cccc2c1=O [Example 459, 2-(tert-butylamino)-3-(2-methoxyethyl)-8-((6R)-6-methyl-4-oxo-1,4,5,6-tetrahydropyrrolo[3,4-b]pyrrol-2-yl)-4(3H)-quinazolinone] | –

Source: patent US9394297B2, “Amides as pim inhibitors” (AMGEN INC., priority 2012, dated 2016)
